Measurements as given in patent US7641919B2, “Anti-bacterial plant compositions” (priority 2001, dated 2010).

How the values were obtained:
[1] = tested on: E-Coli 25922; assay: zone of inhibition against E. coli; format: cell-based, Escherichia coli; settings: HPLC fractions of methylene chloride extract; 6 mm disc; control 10 micrograms streptomycin
Experimental: An HPLC separation and isolation of an active fraction was attempted. High Pressure Liquid Chromatography (HPLC) was performed using a Discovery RP-Amide C-16 Column, 15 cm long, 4.6 mm wide (Supelco, Bellefort, Pa.). An isocratic, i.e. steady concentration, of a polar solvent phase was used. The solvent phase consisted of dilute phosphoric acid in methanol. The flow rate was 2 ml/minute. Therefore exit is dependent on MW (larger MW exists later) and polarity. The more polar the compound, the quicker it solubilizes into the solvent, but it is retained longer in the static phase of the column which holds back the more polar compounds. The fractions were monitored by UV, at 254 nm wave-length. One to three fraction per plant extract were collected at the indicated times. […] See, for example, FIGS. 1-3. Based on consideration of the relative polarity and molecular weights of the compounds identified for the respective plants in the total methylene chloride extract, the compounds in the right-most column of table 5 “Additional Compounds” lists compounds which are not observed in the active fraction of the extract of the respective plants, but which are likely to be present in smaller quantities (“trace amounts”) in the active fraction and which might contribute to the anti-mycobacterial activity.

[2] = tested on: M. smegmatis 607 (ATCC); assay: agar-disk diffusion assay, zone of inhibition; format: cell-based, Mycobacterium smegmatis; settings: HPLC fractions of methylene chloride extract; 6 mm disc; control 10 micrograms streptomycin
[3] = tested on: M. tuberculosis 27294 (a streptomycin sensitive strain, ATCC); assay: BACTEC-460 growth inhibition (growth index, 14CO2); format: cell-based, Mycobacterium tuberculosis; settings: positive control, 50 μg/ml

[H]/N=C(/N)N[C@H]1[C@H](O)[C@@H](O)[C@H](O[C@@H]2O[C@@H](C)[C@](O)(C=O)[C@H]2O[C@@H]2O[C@@H](CO)[C@H](O)[C@@H](O)[C@@H]2NC)[C@@H](N/C(N)=N\[H])[C@@H]1O [Streptomycin]
E-Coli 25922 ZOI (mm) [1]: 14 mm | M. Smegmatis ATCC 607 ZOI (mm) [2]: 17 mm | Δ G1 (growth index change) [3]: Positive control Streptomycin (50 μg/ml) resulting in a Δ G1 of −2.8
